Test results taken from patent US20210382058A1, “PATIENT SELECTION FOR TREATMENT OF MYC POSITIVE CANCERS WITH INDENOISOQUINOLINES” (Purdue Research Foundation, priority 2020, published 2021).
Where two headings read alike, the source gives them in different places.

Columns and labels:
[1] = test system: MYC protein expression in MCF-7 breast cancer cells; assay: Western blotting of MYC protein level in MCF-7 cells; format: cell-based, human; settings: for MYC-inhibitory effect (MYC protein, western blot): MCF-7, 0.5, 1, 2, and 4 μM, 24 h
Protocol: MCF-7 cells were incubated with each compound at four concentrations (0.5, 1, 2, and 4 μM) for 24 hours, and the MYC protein levels were measured (FIG. 3A and FIGS. 12 A to 12 F).
Cells were incubated at 37° C. with 5% CO2.
The gels were cut into strips that contained the proteins of interest and transferred to nitrocellulose membrane (I323002, Invitrogen) using an iBlot 2 Dry Transfer Device (Invitrogen). Immunoblotting was carried out according to standard procedures using the ECL detection method. The membrane was hybridized with the following antibodies: monoclonal anti-MYC (1:1000 dilution; rabbit, Cell Signaling Technology), monoclonal anti-GAPDH (1:2000 dilution; rabbit, Cell Signaling Technology).

NCI-60 cancer cell lines = assay: NCI-60 cancer cell line drug screen (GI50, MGM); format: cell-based, human; settings: for GI50 / mean GI50 across NCI-60 panel (MGM): Homo sapiens; for GI50: read-out: Antiproliferative Activities [GI50 (μM)]; for mean GI50 across NCI-60 panel (MGM): average of GI50 values across the entire panel of NCI-60 cancer cell lines
Protocol: Cancer cells were incubated with the test compounds at five concentrations ranging from 100 μM to 10 nM for 48 h. […] The approximate average of GI50 values across the entire panel of NCI-60 cancer cell lines for each compound was recorded as the MGM value.

[2] = A549, Non-Small Cell Lung Cancer, A549/ATCC
[3] = COLO 205, Colon Cancer, COLO 205
[4] = DU-145, Prostate Cancer, DU-145
[5] = EKVX, Non-Small Cell Lung Cancer, EKVX
[6] = HCC 2998, Colon Cancer, HCC-2998
[7] = HOP-62, Non-Small Cell Lung Cancer, HOP-62
[8] = HOP-92, Non-Small Cell Lung Cancer, HOP-92
[9] = Hs-578T, Breast Cancer, HS 578T
[10] = MDA-MB-231, Breast Cancer, MDA-MB-231/ATCC
[11] = MDA-MB-435, Melanoma, MDA-MB-435
[12] = NCI-H23, Non-Small Cell Lung Cancer, NCI-H23
[13] = NCI-H226, Non-Small Cell Lung Cancer, NCI-H226
[14] = NCI-H322M, Non-Small Cell Lung Cancer, NCI-H322M
[15] = NCI-H460, Non-Small Cell Lung Cancer, NCI-H460
[16] = NCI-H522, Non-Small Cell Lung Cancer, NCI-H522
[17] = OVCAR-3, Ovarian Cancer, OVCAR-3
[18] = OVCAR-4, Ovarian Cancer, OVCAR-4
[19] = OVCAR-5, Ovarian Cancer, OVCAR-5
[20] = OVCAR-8, Ovarian Cancer, OVCAR-8
[21] = SK-OV-3, Ovarian Cancer, SK-OV-3

COc1cnc2c(c1)C(=O)c1c-2n(CCCNC2=NCCS2)c(=O)c2cc([N+](=O)[O-])ccc12 [Compound 12]
MYC-inhibitory effect (MYC protein, western blot) [1]: clear MYC-inhibitory effect
GI50 (NCI-60 cancer cell lines; 786-0, Renal Cancer, 786-0): 0.02 µM
GI50 (NCI-60 cancer cell lines; [2]): 0.04 µM
GI50 (NCI-60 cancer cell lines; ACHN, Renal Cancer, ACHN): < 0.01 µM
GI50 (NCI-60 cancer cell lines; BT-549, Breast Cancer, BT-549): 0.05 µM
GI50 (NCI-60 cancer cell lines; CAKI-1, Renal Cancer, CAKI-1): < 0.01 µM
GI50 (NCI-60 cancer cell lines; CCRF-CEM, Leukemia, CCRF-CEM): < 0.01 µM
GI50 (NCI-60 cancer cell lines; [3]): 0.24 µM
GI50 (NCI-60 cancer cell lines; [4]): < 0.01 µM
GI50 (NCI-60 cancer cell lines; [5]): 1.01 µM
GI50 (NCI-60 cancer cell lines; [6]): 1.03 µM
GI50 (NCI-60 cancer cell lines; HCT-15, Colon Cancer, HCT-15): 1.17 µM
GI50 (NCI-60 cancer cell lines; HL-60, Leukemia, HL-60(TB)): < 0.01 µM
GI50 (NCI-60 cancer cell lines; [7]): 0.01 µM
GI50 (NCI-60 cancer cell lines; [8]): 1.38 µM
GI50 (NCI-60 cancer cell lines; HT-29, Colon Cancer, HT29): 0.03 µM
GI50 (NCI-60 cancer cell lines; [9]): 1.82 µM
GI50 (NCI-60 cancer cell lines; IGROV-1, Ovarian Cancer, IGROV1): 0.08 µM
GI50 (NCI-60 cancer cell lines; K562, Leukemia, K-562): 0.11 µM
GI50 (NCI-60 cancer cell lines; KM12, Colon Cancer, KM12): 1.11 µM
GI50 (NCI-60 cancer cell lines; LOX IMVI, Melanoma, LOX IMVI): < 0.01 µM
GI50 (NCI-60 cancer cell lines; Leukemia, SR): < 0.01 µM
GI50 (NCI-60 cancer cell lines; MCF7, Breast Cancer, MCF7): < 0.01 µM
GI50 (NCI-60 cancer cell lines; [10]): 1.61 µM
GI50 (NCI-60 cancer cell lines; [11]): 0.48 µM
GI50 (NCI-60 cancer cell lines; MDA-MB-468, Breast Cancer, MDA-MB-468): 0.03 µM
GI50 (NCI-60 cancer cell lines; MOLT-4, Leukemia, MOLT-4): < 0.01 µM
GI50 (NCI-60 cancer cell lines; Malme-3M, Melanoma, MALME-3M): 0.62 µM
GI50 (NCI-60 cancer cell lines; Melanoma, M14): < 0.01 µM
GI50 (NCI-60 cancer cell lines; [12]): 0.02 µM
GI50 (NCI-60 cancer cell lines; [13]): 0.04 µM
GI50 (NCI-60 cancer cell lines; [14]): 0.04 µM
GI50 (NCI-60 cancer cell lines; [15]): < 0.01 µM
GI50 (NCI-60 cancer cell lines; [16]): < 0.01 µM
GI50 (NCI-60 cancer cell lines; [17]): 0.14 µM
GI50 (NCI-60 cancer cell lines; [18]): 0.48 µM
GI50 (NCI-60 cancer cell lines; [19]): 1.04 µM
GI50 (NCI-60 cancer cell lines; [20]): 0.02 µM
GI50 (NCI-60 cancer cell lines; Ovarian Cancer, NCl/ADR-RES): 0.02 µM
GI50 (NCI-60 cancer cell lines; Prostate Cancer, PC-3): 1.28 µM
GI50 (NCI-60 cancer cell lines; RPMI-8226, Leukemia, RPMI-8226): 0.03 µM
GI50 (NCI-60 cancer cell lines; RXF 393, Renal Cancer, RXF 393): 0.03 µM
GI50 (NCI-60 cancer cell lines; Renal Cancer, U0-31): < 0.01 µM
GI50 (NCI-60 cancer cell lines; SF-268, CNS Cancer, SF-268): < 0.01 µM
GI50 (NCI-60 cancer cell lines; SF-295, CNS Cancer, SF-295): 0.01 µM
GI50 (NCI-60 cancer cell lines; SF-539, CNS Cancer, SF-539): 0.04 µM
GI50 (NCI-60 cancer cell lines; SK-MEL-2, Melanoma, SK-MEL-2): 1.56 µM
GI50 (NCI-60 cancer cell lines; SK-MEL-5, Melanoma, SK-MEL-5): 0.03 µM
GI50 (NCI-60 cancer cell lines; SK-MEL-28, Melanoma, SK-MEL-28): 1.18 µM
GI50 (NCI-60 cancer cell lines; [21]): 0.01 µM
GI50 (NCI-60 cancer cell lines; SN12C, Renal Cancer, SN12C): < 0.01 µM
GI50 (NCI-60 cancer cell lines; SNB-19, CNS Cancer, SNB-19): 0.01 µM
GI50 (NCI-60 cancer cell lines; SNB-75, CNS Cancer, SNB-75): 0.03 µM
GI50 (NCI-60 cancer cell lines; SW-620, Colon Cancer, SW-620): 0.01 µM
GI50 (NCI-60 cancer cell lines; T47D, Breast Cancer, T-47D): < 0.01 µM
GI50 (NCI-60 cancer cell lines; TK-10, Renal Cancer, TK-10): 1.34 µM
GI50 (NCI-60 cancer cell lines; U-251, CNS Cancer, U251): < 0.01 µM
GI50 (NCI-60 cancer cell lines; UACC-62, Melanoma, UACC-62): < 0.01 µM
GI50 (NCI-60 cancer cell lines; UACC-257, Melanoma, UACC-257): 0.58 µM
mean GI50 across NCI-60 panel (MGM) (NCI-60 cancer cell lines): 55 nM
anticancer activity (GI50 profile) in words (NCI-60 cancer cell lines; NCI-60 panel): more potent anticancer activities compared to compounds 4 and 20

O=C1c2ccccc2-c2c1c1ccccc1c(=O)n2CCCNCCO [Compound 13]
minimal effective concentration ([1]; Homo sapiens, MCF7, western blotting, MCF-7 cells, 0.5, 1, 2, and 4 μM, 24 hours, read-out: MYC Inhibition): 0.5 to 1 µM
MYC-inhibitory effect (MYC protein, western blot) [1]: clear MYC-inhibitory effect
GI50 (NCI-60 cancer cell lines; 786-0, Renal Cancer, 786-0): 0.06 µM
GI50 (NCI-60 cancer cell lines; A498, Renal Cancer, A498): 0.13 µM
GI50 (NCI-60 cancer cell lines; [2]): 0.06 µM
GI50 (NCI-60 cancer cell lines; ACHN, Renal Cancer, ACHN): 0.04 µM
GI50 (NCI-60 cancer cell lines; BT-549, Breast Cancer, BT-549): 0.28 µM
GI50 (NCI-60 cancer cell lines; CAKI-1, Renal Cancer, CAKI-1): 0.24 µM
GI50 (NCI-60 cancer cell lines; CCRF-CEM, Leukemia, CCRF-CEM): 0.01 µM
GI50 (NCI-60 cancer cell lines; [3]): 0.07 µM
GI50 (NCI-60 cancer cell lines; [4]): 0.06 µM
GI50 (NCI-60 cancer cell lines; [5]): 0.43 µM
GI50 (NCI-60 cancer cell lines; [6]): 0.19 µM
GI50 (NCI-60 cancer cell lines; HCT-15, Colon Cancer, HCT-15): 0.15 µM
GI50 (NCI-60 cancer cell lines; HCT-116, Colon Cancer, HCT-116): 0.04 µM
GI50 (NCI-60 cancer cell lines; HL-60, Leukemia, HL-60(TB)): 0.21 µM
GI50 (NCI-60 cancer cell lines; [7]): 0.03 µM
GI50 (NCI-60 cancer cell lines; [8]): 0.15 µM
GI50 (NCI-60 cancer cell lines; HT-29, Colon Cancer, HT29): 0.12 µM
GI50 (NCI-60 cancer cell lines; [9]): 0.66 µM
GI50 (NCI-60 cancer cell lines; K562, Leukemia, K-562): 0.18 µM
GI50 (NCI-60 cancer cell lines; KM12, Colon Cancer, KM12): 0.19 µM
GI50 (NCI-60 cancer cell lines; LOX IMVI, Melanoma, LOX IMVI): 0.05 µM
GI50 (NCI-60 cancer cell lines; Leukemia, SR): < 0.01 µM
GI50 (NCI-60 cancer cell lines; MCF7, Breast Cancer, MCF7): < 0.01 µM
GI50 (NCI-60 cancer cell lines; [10]): 0.68 µM
GI50 (NCI-60 cancer cell lines; [11]): 0.39 µM
GI50 (NCI-60 cancer cell lines; MOLT-4, Leukemia, MOLT-4): < 0.01 µM
GI50 (NCI-60 cancer cell lines; Malme-3M, Melanoma, MALME-3M): 0.21 µM
GI50 (NCI-60 cancer cell lines; Melanoma, M14): 0.32 µM
GI50 (NCI-60 cancer cell lines; [12]): 0.21 µM
GI50 (NCI-60 cancer cell lines; [13]): 1.42 µM
GI50 (NCI-60 cancer cell lines; [14]): 0.34 µM
GI50 (NCI-60 cancer cell lines; [15]): < 0.01 µM
GI50 (NCI-60 cancer cell lines; [16]): 0.02 µM
GI50 (NCI-60 cancer cell lines; [17]): 0.41 µM
GI50 (NCI-60 cancer cell lines; [18]): 0.23 µM
GI50 (NCI-60 cancer cell lines; [19]): 0.38 µM
GI50 (NCI-60 cancer cell lines; [20]): 0.07 µM
GI50 (NCI-60 cancer cell lines; Ovarian Cancer, NCl/ADR-RES): 1.04 µM
GI50 (NCI-60 cancer cell lines; Prostate Cancer, PC-3): 0.28 µM
GI50 (NCI-60 cancer cell lines; RPMI-8226, Leukemia, RPMI-8226): 0.1 µM
GI50 (NCI-60 cancer cell lines; RXF 393, Renal Cancer, RXF 393): 0.96 µM
GI50 (NCI-60 cancer cell lines; Renal Cancer, U0-31): 0.1 µM
GI50 (NCI-60 cancer cell lines; SF-268, CNS Cancer, SF-268): 0.07 µM
GI50 (NCI-60 cancer cell lines; SF-295, CNS Cancer, SF-295): 0.08 µM
GI50 (NCI-60 cancer cell lines; SF-539, CNS Cancer, SF-539): 0.11 µM
GI50 (NCI-60 cancer cell lines; SK-MEL-2, Melanoma, SK-MEL-2): 0.55 µM
GI50 (NCI-60 cancer cell lines; SK-MEL-5, Melanoma, SK-MEL-5): 0.07 µM
GI50 (NCI-60 cancer cell lines; SK-MEL-28, Melanoma, SK-MEL-28): 1.11 µM
GI50 (NCI-60 cancer cell lines; [21]): 0.22 µM
GI50 (NCI-60 cancer cell lines; SN12C, Renal Cancer, SN12C): 0.16 µM
GI50 (NCI-60 cancer cell lines; SNB-19, CNS Cancer, SNB-19): 0.11 µM
GI50 (NCI-60 cancer cell lines; SNB-75, CNS Cancer, SNB-75): 0.23 µM
GI50 (NCI-60 cancer cell lines; SW-620, Colon Cancer, SW-620): 0.04 µM
GI50 (NCI-60 cancer cell lines; T47D, Breast Cancer, T-47D): 0.05 µM
GI50 (NCI-60 cancer cell lines; TK-10, Renal Cancer, TK-10): 0.41 µM
GI50 (NCI-60 cancer cell lines; U-251, CNS Cancer, U251): 0.1 µM
GI50 (NCI-60 cancer cell lines; UACC-62, Melanoma, UACC-62): 0.55 µM
GI50 (NCI-60 cancer cell lines; UACC-257, Melanoma, UACC-257): 1.18 µM
mean GI50 across NCI-60 panel (MGM) (NCI-60 cancer cell lines): 140 nM
